Assay results reported in paper PMC11865921, “Effect of mono-guanidine-like derivatives on platelet aggregation and tumour cell induced platelet aggregation” (RSC Medicinal Chemistry, 2025).
Where two headings read alike, the source gives them in different places.

Experiments:
sigma σ1 receptor = target: T1, sigma σ1 receptor; assay: PDSP radioligand competition binding
T1 construct: gene SIGMAR1; PDSP has often used guinea pig or rat tissue for sigma1
Excerpt: PDSP radioligand competition binding on sigma σ1 receptor

sigma σ2 receptor = target: T2, sigma σ2 receptor; assay: PDSP radioligand competition binding; details: read-out: [drawing 1]
T2 construct: gene TMEM97; PDSP has often used rat PC12 cells or guinea pig tissue for sigma2
Excerpt: PDSP radioligand competition binding on sigma σ2 receptor

| SMILES | Ki (sigma σ1 receptor; read-out: [drawing 1]) | Ki (sigma σ2 receptor) | Ki (sigma σ1 receptor; read-out: [drawing 2]) |
| --- | --- | --- | --- |
| N=C(N)Nc1ccc2c(n1)CCCC2 [compound 1] | 266 nM | 547 nM | – |
| c1cc2c(nc1NC1=NCCN1)CCCC2 [compound 2] | – | – | 179 nM |
